Source: patent publication US10196393B2, “JAK inhibitors containing a 4-membered heterocyclic amide” (THERAVANCE BIOPHARMA R&D IP, LLC, priority 2017, dated 2019)
Read-outs that look alike come from different tables or passages of the source.

Key:
Format in all cases: cell-based
[1] = test system: IFNγ induced CXCL10 and CXCL9 secretion in EpiAirway tissue cultures; test: Inhibition of IFNγ induced chemokines CXCL9 and CXCL10 in human 3D airway cultures; settings: 192 h, Day 8, ±STDV
Procedure: Assay 7: Inhibition of IFNγ and IL-27 Induced Chemokines CXCL9 and CXCL10 in Human 3D Airway Cultures
EpiAirway tissue cultures were obtained from Mattek (AIR-100). Cultures were derived from asthmatic donors. In a cell culture insert, human derived tracheal/bronchial epithelial cells were grown and differentiated on a porous membrane support, allowing an air-liquid interface with warmed culture medium below the cells and a gaseous test atmosphere above. Tissues were cultured in maintenance media (Mattek, AIR-100-MM) in a 37° C., 5% CO2 humidified incubator. Four donors were tested. On Day 0, tissue cultures were treated with test compounds at 10 μM, 1 μM and/or 0.1 μM. Compounds were diluted in dimethyl sulfoxide (DMSO, Sigma) to a final concentration of 0.1%. DMSO at 0.1% was used as a vehicle control. Test compounds were incubated with cultures for 1 hour at 37° C., 5% CO2, followed by the addition of pre-warmed media containing IFNγ (R&D Systems) or IL-27 (R&D Systems) at a final concentration at 100 ng/ml. Tissue cultures were maintained for 8 days. Media was replaced every 2 days with fresh media containing compounds and IFNγ or IL-27. On Day 8, tissue cultures and supernatants were collected for analysis. Supernatant samples were assayed for CXCL10 (IP-10) and CXCL9 (MIG) using luminex analysis (EMD Millipore). Data is expressed as % Inhibition +/−standard deviation (±STDV). Percent inhibition was determined by compound inhibitory potency against IFNγ or IL-27 induced CXCL10 or CXCL9 secretion compared to vehicle treated cells. Data is the average from 3 or 4 donors. […] The compound of example 2 was able to inhibit IFNγ induced CXCL9 secretion by 93%±13 (at 10 μM) and 24%±49 (at 1 μM) when compared to vehicle.

[2] = test system: IL-2/anti-CD3 stimulated STAT5 phosphorylation in CD4+ T cells; test: Cellular JAK potency assay: inhibition of IL-2 stimulated pSTAT5 in CD4+ T cells; settings: 0.5 h; CD4+ T cells in human PBMCs, 30 min stimulation; read-out: pIC50, inhibition of IL-2 stimulated pSTAT5 (converted)
Procedure: Assay 9: Cellular JAK Potency Assay: Inhibition of IL-2 Stimulated pSTAT5 in CD4+ T Cells
The potency of the test compound for inhibition of interleukin-2 (IL-2)/anti-CD3 stimulated STAT5 phosphorylation was measured in CD4-positive (CD4+) T cells in human peripheral blood mononuclear cells (PBMCs) isolated from human whole blood (Stanford Blood Center) using flow cytometry. Because IL-2 signals through JAK, this assay provides a measure of JAK cellular potency. […]
(2) After cytokine stimulation, cells were fixed with pre warmed fix solution (200 μL; BD Biosciences) for 10 min at 37° C., 5% CO2, washed twice with DPBS buffer (1 mL, Life Technologies), and resuspended in ice cold Perm Buffer III (1000 μL, BD Biosciences) for 30 min at 4° C. […] After incubation, cells were washed twice in FACS buffer before being analyzed using a LSRII flow cytometer (BD Biosciences). To determine the inhibitory potency of test compounds in response to IL-2/anti-CD3, the median fluorescent intensity (MFI) of pSTAT5 was measured in CD4+ T cells. IC50 values were determined from analysis of the inhibition curves of MFI vs compound concentration. Data are expressed as pIC50 (negative decadic logarithm IC50) values.

[3] = test system: IL-5 mediated eosinophil survival in human eosinophils; test: IL-5 mediated eosinophil survival assay; settings: 72 h, read-out: pIC50, IL-5 mediated eosinophil survival (converted)
Procedure: Assay 6: IL-5 Mediated Eosinophil Survival Assay
The potency of the test compound for IL-5 mediated eosinophil survival was measured in human eosinophils isolated from human whole blood (AllCells). Because IL-5 signals through JAK, this assay provides a measure of JAK cellular potency.
Human eosinophils were isolated from fresh human whole blood (AllCells) of healthy donors. Blood was mixed with 4.5% Dextran (Sigma-Aldrich) in a 0.9% sodium chloride solution (Sigma-Aldrich). Red blood cells were left to sediment for 35 minutes. The leukocyte rich upper layer was removed and layered over Ficoll-Paque (GE Healthcare) and centrifuged at 600 g for 30 minutes. The plasma and mononuclear cell layers were removed before the granulocyte layer was lysed with water to remove any contaminating red blood cells. […] Purity was analyzed using a LSRII flow cytometer (BD Biosciences). […]
After cytokine stimulation, cells were centrifuged at 300 g for 5 min and washed twice with cold DPBS (Life Technologies). To access viability and apoptosis, cells were incubated with Propidium Iodide (Thermo Fisher Scientific) and APC Annexin V (BD Biosciences) and analyzed using a LSRII flow cytometer (BD Biosciences). IC50 values were determined from analysis of the viability curves of percent cell viability vs compound concentration. Data are expressed as pIC50 (negative decadic logarithm IC50) values.

In the case of CCc1cc(O)c(F)cc1-c1ccc2c(-c3nc4c([nH]3)CN(C(C)C)[C@H](C(=O)N3CC(N(C)C)C3)C4)n[nH]c2c1 [Example 2, (S)-(3-(dimethylamino)azetidin-1-yl)(2-(6-(2-ethyl-5-fluoro-4-hydroxyphenyl)-1H-indazol-3-yl)-5-isopropyl-4,5,6,7-tetrahydro-3H-imidazo[4,5-c]pyridin-6-yl)methanone], the inhibition at 0.1 µM ([1]; at 0.1 μM) is reported as 6%, the inhibition at 1 µM ([1]; at 1 μM) is reported as 24% and the inhibition at 10 µM ([1]; 3 or 4 donors, read-out: % inhibition of IFNγ induced CXCL10 secretion) is reported as 101%. For the same molecule, the inhibition at 10 µM ([1]; read-out: % inhibition of IFNγ induced CXCL9 secretion) was 93%, the IC50 [2] was ~50.1 nM and the IC50 ([3]; in the presence of 10 pg/ml IL-5, 72 hours) was 25.1 nM. It also gave an IC50 ([3]; in the presence of 1 ng/ml IL-5, 72 hours) of 631 nM.
